The test system of assay [1] is damaged nerve tissue (crushed spinal cord). Nature of the assay: Regeneration of damaged nerve tissue after crushing the spinal cord. Type of assay: in vivo, Wistar rats. The settings on record: 10 mM in saline, 0.75 ml four times a day at the site of injury for 14 days, versus saline. As for the experimental part:
Postnatal day 4 Wistar 10 rats were used for the study. The rats were divided in 2 groups: one group of 5 animals treated with drug solution, and the other group of animals treated with 0.9% sodium chloride (saline) solution. A drug solution containing cPG (from Bachem, 10 mM solution prepared in 0.9% sodium chloride (saline) solution) was administered four times a day in volumes of 0.75 ml to thoroughly flood the site of injury.
Two days after crushing the spinal cord, the dura of a rat was opened and a polyethylene tube was sutured to the vertebral spines and adjacent soft tissues so that the opening in one end lay directly over the injured part of the spinal cord. The tubing was brought through a subcutaneous tunnel so that its other end emerged at the base of the skull. A syringe adapter was attached to the external opening for injecting the drugs. All experiments were on a double-blind basis on 2 groups: one group of 5 animals treated with drug solution of 10 mM in saline solution, and the other group of 5 animals treated with 0.9% sodium chloride (saline) solution. Treatment of every animal was continued for 14 days, after which the animals were killed and histological sections prepared.
Postnatal day 4 Wistar 10 rats were used for the study. […]

For assay [2], the system named is 6-OHDA induced nigral-striatal lesion. As to the kind of experiment: 6-OHDA induced nigral-striatal lesion, apomorphine-induced contralateral rotations. It counts as in vivo, Wistar rats. The settings on record: 1 mg (mg/kg) i.p. 2 hours post lesion; 7 days post-lesion, apomorphine 0.1 mg/kg; n=5; vehicle 290±18 or 292±21. As for the experimental part:
Twenty male Wistar rats (280-310 g) were used. After exposing the skull, 6-OHDA (8 μg in a base of 2 μl 0.9% saline containing 1% ascorbic acid) was administered into the right medial forebrain bundle (MFB) using co-ordinates AP +4.7 mm, R 1.6 mmv −8 mm under 3% halothane anaesthesia. 6-OHDA was injected through a 25G needle connected via a polyethylene catheter to a 100 μl Hamilton syringe. The 6-OHDA was infused by a microdialysis infusion pump at a rate of 0.5 μl/min. The needle was left in the brain for a further 3 minutes before being slowly withdrawn. The skin was sutured with 2.0 silk and the rats were allowed to recover from anaesthesia. The rats were housed in a holding room with free access to food and water at all times except during behavioural testing.
Cyclic PG was dissolved in saline. Four different doses of cPG (0, 0.1, 0.5, 1 mg/kg, Bachem) were administered intraperitoneally 2 hours post lesion.
At 7 days post-lesion, rats were injected with 0.1 mg/kg apomorphine and the number of contralateral rotations/hour was recorded and calculated using a computerised Rotameter (St Diego Instruments). Experimenter was blinded from the treatment groups.
Cyclic(tri(prolylglycyl)) was dissolved in saline solution. Four different doses of Cyclic(tri(prolylglycyl)) (0, 0.1, 0.5, 1 mg/kg, NeuroBiomed) were administered intraperitoneally 2 hours post lesion.
Cyclic Glycyl-2-Methyl Proline (cGMeP) was dissolved in saline solution. Four different doses of cGMeP (0, 0.1, 0.5, 1 mg/kg, NeuroBiomed) were administered intraperitoneally 2 hours post lesion.

Experimental findings from patent US12070458B2, “Therapeutic agent composition and method of use, for treatment of mild congnitive impairment, depression, and psychological disorders” (priority 2018, dated 2024) are described below.

Residues, ends and D or L forms follow the SMILES beside them.

For the compound `O=C1NCC(=O)N2CCC[C@@H]12` [cPG, cyclic Prolyl Glycine], the “nerve growth into the lesion site (histology)” value in assay [1] was “most prolific nerve growth”. Also, the “number of contralateral rotations/hour” value in assay [2] is on record as 154±64 rotations/hour.
For the compound `O=C1NCC(=O)N2CCC[C@H]2C(=O)NCC(=O)N2CCC[C@H]2C(=O)NCC(=O)N2CCCC12` (stereo partly drawn) [c(PG)3, cyclic (glycyl-L-prolylglycyl-L-prolylglycyl-L-prolyl)] (HELM PEPTIDE1{G.P.G.P.G.[O=C(C1CCCN1[*:1])[*:2]]}$PEPTIDE1,PEPTIDE1,1:R1-6:R2$$$V2.0), in assay [1], the “nerve growth into the lesion site (histology)” value is reported as “prolific nerve growth”. Also, the “number of contralateral rotations/hour” value in assay [2] came to 172±69 rotations/hour.
